Assay results: patent US11529338B2, “Compositions and methods for treating cancer” (Cedars-Sinai Medical Center, priority 2017, dated 2022)

Molecular target: T1, OC2-HOX (Homo sapiens, UniProt O95948)
T1 sequence (O95948 426-485 limits assumed): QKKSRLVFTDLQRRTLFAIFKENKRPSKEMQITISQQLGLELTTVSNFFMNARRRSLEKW
Test: Binding to OC2-HOX measured by surface plasmon resonance
Conditions: based on 2:2 Langmuir model simulation of the bimolecular interactions, read-out: binding affinity KD
Excerpt: FIG. 12A-FIG. 12C depicts in accordance with various embodiments of the invention, CSRM617 derivatives. FIG. 12A depicts chemical structures of CSRM617 derivatives CSRM123 and CSRM843. FIG. 12B depicts dose-dependent binding of CSRM123 and CSRM843 to OC2-HOX, measured by surface plasmon resonance, is shown. […] FIG. 12C depicts IC50 values for compounds CSRM617, CSRM123 and CSRM843 in 22Rv1 and DU145 cell lines.

SMILES	Kd [nM]
O=C(CNC(=O)Cc1ccc(O)c(O)c1O)NO [CSRM843]	118
NC(=O)C1CCCCN1C(=O)NCCc1ccc(O)c(O)c1O (centres unmarked) [CSRM123]	1150
